Here are results for 11 compounds from ChEMBL document CHEMBL5376009 (RSC Med Chem, 2024).

Data set [1] relates to Influenza A virus. Nature of the data set: Antiviral activity against influenza A virus A/WSN/33 (H1N1) infected in MDCK cells assessed as reduction in cytopathic effect incubated for 48 hrs by crystal violet staining based plaque assay. It counts as functional, organism-based. In general terms: Cytopathic effects are the visible damage that an infection or toxin causes in cultured cells.

Data set [2] deals with Influenza A virus. Kind of data set: Antiviral activity against influenza A virus A/PuertoRico/8/1934 (H1N1) infected in MDCK cells assessed as reduction in cytopathic effect incubated for 48 hrs by crystal violet staining based plaque assay. It counts as functional, organism-based.
Data set [3] has as its system Influenza A virus. Kind of data set: Antiviral activity against influenza A virus A/Sydney/5/1997 (H3N2) infected in MDCK cells assessed as reduction in cytopathic effect incubated for 48 hrs by crystal violet staining based plaque assay. It counts as functional, organism-based.
Data set [4] has as its system Influenza A virus. Kind of data set: Antiviral activity against influenza A virus A/duck/Hokkaido/Vac-3/2007 (H5N1) infected in MDCK cells assessed as reduction in cytopathic effect incubated for 48 hrs by crystal violet staining based plaque assay. It counts as functional, organism-based.
Data set [5] in a line: Cytotoxicity against MDCK cells assessed as reduction in cell viability measured after 48 hrs by WST-1 assay. It counts as toxicity, cell-based, Canis lupus familiaris. The following applies: dog.
For data set [6], the system named is Influenza A virus. Kind of data set: Antiviral activity against influenza A virus […], A/WSN/33. It counts as functional, organism-based.
Data set [7] deals with Influenza A virus. Kind of data set: Antiviral activity against influenza A virus H1N1, A/PR/8/34. It counts as functional, organism-based.
Data set [8] concerns Influenza A virus. Nature of the data set: Antiviral activity against influenza A virus H1N1, A/California/7/2009. It counts as functional, organism-based.
The nature of data set [9]: Cytotoxicity against MDCK cells assessed as reduction in cell viability. The following applies: dog. It counts as toxicity, cell-based, Canis lupus familiaris.
For data set [10], the system named is A549. Nature of the data set: Cytotoxicity against human A549 cells incubated for 48 hrs by cell Titer-Glo assay. It counts as functional. (In general: Cellular ATP, detected with luciferase, serves as a proxy for viable cell number.)
The target of data set [11] is Phosphatidylinositol 4-phosphate 3-kinase C2 domain-containing subunit beta (Homo sapiens, UniProt O00750). Nature of the data set: Inhibition of PIK3C2beta (unknown origin) by KINOMEscan method.
Phosphatidylinositol 4-phosphate 3-kinase C2 domain-containing subunit beta, sequence (O00750 whole entry, the tested form may be a part): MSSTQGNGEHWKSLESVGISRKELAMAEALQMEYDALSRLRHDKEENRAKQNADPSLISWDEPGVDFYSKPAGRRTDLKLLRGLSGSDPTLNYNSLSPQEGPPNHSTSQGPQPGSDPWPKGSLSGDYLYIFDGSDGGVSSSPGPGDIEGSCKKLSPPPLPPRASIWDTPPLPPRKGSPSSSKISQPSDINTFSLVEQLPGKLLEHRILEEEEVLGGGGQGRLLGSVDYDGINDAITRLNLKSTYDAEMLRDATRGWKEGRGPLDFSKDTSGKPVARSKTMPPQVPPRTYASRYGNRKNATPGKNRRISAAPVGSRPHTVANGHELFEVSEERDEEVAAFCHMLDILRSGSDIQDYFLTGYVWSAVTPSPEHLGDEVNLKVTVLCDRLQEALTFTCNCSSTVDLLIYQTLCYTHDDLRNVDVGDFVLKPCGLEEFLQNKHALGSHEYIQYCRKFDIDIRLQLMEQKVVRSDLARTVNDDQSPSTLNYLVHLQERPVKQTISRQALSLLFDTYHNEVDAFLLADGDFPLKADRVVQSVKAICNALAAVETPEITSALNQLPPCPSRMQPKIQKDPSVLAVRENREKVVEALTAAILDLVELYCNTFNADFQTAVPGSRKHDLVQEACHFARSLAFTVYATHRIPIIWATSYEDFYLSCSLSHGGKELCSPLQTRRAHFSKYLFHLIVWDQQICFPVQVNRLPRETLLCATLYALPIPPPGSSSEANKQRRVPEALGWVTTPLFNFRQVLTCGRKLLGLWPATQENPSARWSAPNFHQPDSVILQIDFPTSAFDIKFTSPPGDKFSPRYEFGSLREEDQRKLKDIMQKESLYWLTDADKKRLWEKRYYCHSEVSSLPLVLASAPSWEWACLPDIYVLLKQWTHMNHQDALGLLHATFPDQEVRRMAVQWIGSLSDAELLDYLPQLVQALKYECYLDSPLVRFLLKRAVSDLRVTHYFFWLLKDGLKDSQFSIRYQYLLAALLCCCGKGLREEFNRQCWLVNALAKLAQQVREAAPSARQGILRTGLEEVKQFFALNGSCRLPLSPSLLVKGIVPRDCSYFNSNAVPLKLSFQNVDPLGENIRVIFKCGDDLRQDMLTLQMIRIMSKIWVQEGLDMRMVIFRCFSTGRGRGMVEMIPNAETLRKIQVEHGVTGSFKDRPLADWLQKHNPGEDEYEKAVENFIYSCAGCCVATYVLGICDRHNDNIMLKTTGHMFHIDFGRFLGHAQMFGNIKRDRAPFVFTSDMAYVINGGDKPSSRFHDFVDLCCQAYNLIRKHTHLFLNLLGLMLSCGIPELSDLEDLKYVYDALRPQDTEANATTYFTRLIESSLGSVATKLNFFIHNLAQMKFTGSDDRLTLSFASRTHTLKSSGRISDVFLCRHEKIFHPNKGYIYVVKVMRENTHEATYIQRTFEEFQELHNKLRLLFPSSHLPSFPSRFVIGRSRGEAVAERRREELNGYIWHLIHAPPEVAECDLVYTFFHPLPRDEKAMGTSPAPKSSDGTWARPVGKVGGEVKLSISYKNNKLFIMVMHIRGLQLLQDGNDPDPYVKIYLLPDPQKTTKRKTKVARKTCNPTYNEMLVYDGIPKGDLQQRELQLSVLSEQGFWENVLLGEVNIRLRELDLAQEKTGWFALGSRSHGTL
Data set [12] relates to Influenza A virus. Kind of data set: Antiviral activity against Influenza A virus A/WSN/33 (H1N1) infected in human A549 cells pretreated with cell for 2 hrs followed by viral infection for 1 hrs by plaque assay. It counts as functional, organism-based.
The test system of data set [13] is Influenza A virus. Kind of data set: Antiviral activity against Influenza A virus A/Vietnam/1203/04 (H5N1) HALo infected in human A549 cells pretreated with cell for 2 hrs followed by viral infection for 1 hrs by plaque assay. It counts as functional, organism-based.
Data set [14] deals with Influenza A virus. Nature of the data set: Antiviral activity against Influenza A virus A/Panama/2007/99 (H3N2) infected in human A549 cells pretreated with cell for 2 hrs followed by viral infection for 1 hrs by plaque assay. It counts as functional, organism-based.
Data set [15] deals with Hepatitis C virus. Kind of data set: Antiviral activity against Hepatitis C virus infected in human Huh7.5 cells pretreated with cell for 2 hrs followed by viral infection for 1 hrs by plaque assay. It counts as functional, organism-based, Hepacivirus hominis.
In data set [16] the test system is rhinovirus B14. Nature of the data set: Antiviral activity against Human rhinovirus 14 infected in human HeLa Ohio cells pretreated with cell for 2 hrs followed by viral infection for 1 hrs by plaque assay. The following applies: Rhinovirus B. It counts as functional, organism-based.
Data set [17] concerns Influenza A virus. Nature of the data set: Antiviral activity against Influenza A virus A/California/04/2009 (H1N1) infected in MDCK cells pretreated with cell for 30 mins followed by viral infection and measured for 72 hrs by luminescence based assay. It counts as functional, organism-based.
The subject of data set [18] is Influenza A virus. Nature of the data set: Antiviral activity against Influenza A virus A/Vietnam/1203/2004 (H5N1) infected in MDCK cells pretreated with cell for 30 mins followed by viral infection and measured for 72 hrs by luminescence based assay. It counts as functional, organism-based.
Data set [19] in a line: Selectivity index, ratio of IC50 for cytotoxicity against MDCK cells to EC50 for antiviral activity Influenza A virus A/California/04/2009 (H1N1) infected in MDCK cells. It counts as toxicity, cell-based. The following applies: dog, read-out: Selectivity Index.
The nature of data set [20]: Selectivity index, ratio of IC50 for cytotoxicity against MDCK cells to EC50 for antiviral activity Influenza A virus A/Vietnam/1203/2004 (H5N1) infected in MDCK cells. It counts as toxicity, cell-based. The following applies: dog, read-out: Selectivity Index.
The subject of data set [21] is Influenza A virus. Nature of the data set: Antiviral activity against Influenza A virus A/PR/8/34 (H1N1) infected in human A549 cells pretreated with cell for 3 hrs followed by viral infection and measured for 24 hrs. It counts as functional, organism-based.
The nature of data set [22]: Cytotoxicity against human A549 cells incubated for 48 hrs by neutral red uptake assay. It counts as toxicity, cell-based.
Data set [23] relates to Influenza A virus. Kind of data set: Antiviral activity against Influenza A virus A (H1N1). It counts as functional, organism-based.
Data set [24] can be described thus: Cytotoxicity against MDCK cells. It counts as toxicity, cell-based, Canis lupus familiaris. The following applies: dog.
Data set [25] addresses Neuraminidase (Influenza A virus, UniProt B4URF0). Kind of data set: Inhibition of influenza A virus neuraminidase.
The test system of data set [26] is Influenza A virus. Nature of the data set: Antiviral activity against influenza A virus A/California/07/2009 (H1N1) infected in MDCK cells assessed as reduction in cytopathic effect by DAPI staining based analysis. It counts as functional, organism-based.
In data set [27] the test system is Influenza A virus. Nature of the data set: Antiviral activity against influenza A virus A/Brisbane/59/2009 (H1N1) infected in MDCK cells assessed as reduction in cytopathic effect by DAPI staining based analysis. It counts as functional, organism-based.
Data set [28] has as its system Influenza A virus. Kind of data set: Antiviral activity against influenza A virus A/Udorn/1972 (H3N2) infected in MDCK cells assessed as reduction in cytopathic effect by DAPI staining based analysis. It counts as functional, organism-based.
For data set [29], the system named is Influenza A virus. Nature of the data set: Antiviral activity against influenza A virus H5N1 (RG14) infected in MDCK cells assessed as reduction in cytopathic effect by DAPI staining based analysis. It counts as functional, organism-based.
The nature of data set [30]: Cytotoxicity against HEK293T cells assessed as reduction in cell viability measured after 48 hrs by Cell-Titer Glo assay. It counts as toxicity, cell-based, HEK-293T. The following applies: human.
Data set [31] is described as follows: Cytotoxicity against HEK293T cells incubated for 48 hrs by Cell Titer-Glo assay. It counts as toxicity, cell-based, HEK-293T. To be noted: human.
In data set [32] the test system is Influenza A virus. Kind of data set: Antiviral activity against influenza A virus A/California/07/2009 (H1N1) infected in MDCK cells assessed as reduction in cytopathic effect by fluorescence based analysis. It counts as functional, organism-based.
Data set [33] concerns Influenza A virus. Kind of data set: Antiviral activity against influenza A virus A/Brisbane/59/2009 (H1N1) infected in MDCK cells assessed as reduction in cytopathic effect by fluorescence based analysis. It counts as functional, organism-based.
In data set [34] the test system is Influenza A virus. Kind of data set: Antiviral activity against influenza A virus A/Udorn/1972 (H3N2) infected in MDCK cells assessed as reduction in cytopathic effect by fluorescence based analysis. It counts as functional, organism-based.
For data set [35], the system named is Influenza A virus. Kind of data set: Antiviral activity against influenza A virus H5N1 (RG14) infected in MDCK cells assessed as reduction in cytopathic effect by fluorescence based analysis. It counts as functional, organism-based.
A short description of data set [36]: Cytotoxicity against MDCK cells incubated for 72 hrs by CCK-8 assay. The following applies: dog. It counts as toxicity, cell-based, Canis lupus familiaris.
Data set [37] deals with Influenza A virus. Kind of data set: Antiviral activity against influenza A H5N1 infected in MDCK cells assessed as viral growth inhibition measured for 12 to 72 hrs. It counts as functional, organism-based.
In data set [38] the test system is Influenza A virus. Nature of the data set: Antiviral activity against influenza A virus A/WSN/1933 (H1N1) infected in MDCK cells assessed as reduction in cytopathic effect by fluorescence based analysis. It counts as functional, organism-based.
The nature of data set [39]: Cytotoxicity against MDCK cells assessed as reduction in cell viability measured after 72 hrs by fluorescence based assay. The following applies: dog. It counts as toxicity, Canis lupus familiaris.

Neuraminidase, sequence (B4URF0 whole entry): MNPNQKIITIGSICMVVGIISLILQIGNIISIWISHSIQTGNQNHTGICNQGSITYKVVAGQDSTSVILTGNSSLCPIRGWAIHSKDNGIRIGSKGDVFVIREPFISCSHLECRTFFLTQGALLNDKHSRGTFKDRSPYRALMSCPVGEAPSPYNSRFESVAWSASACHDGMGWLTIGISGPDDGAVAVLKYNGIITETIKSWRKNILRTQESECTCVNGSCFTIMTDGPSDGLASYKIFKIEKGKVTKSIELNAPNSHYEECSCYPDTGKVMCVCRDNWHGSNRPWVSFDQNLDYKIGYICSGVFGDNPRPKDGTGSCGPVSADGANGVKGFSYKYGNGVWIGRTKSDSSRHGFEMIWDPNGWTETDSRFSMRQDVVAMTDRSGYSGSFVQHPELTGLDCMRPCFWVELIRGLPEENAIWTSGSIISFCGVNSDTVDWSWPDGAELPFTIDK

The term EC50 denotes the midpoint of the concentration-response curve. As usually defined, the CC50 is the concentration that lowers cell viability or growth by half. For the compound `OC(CN1CCCCC1)Cn1c2c(c3ccccc31)CCCC2` (configuration not stated), the concentration for a half-maximal effect (EC50) in [1] was determined as 35.6 µM; in data set [2] it was 30.7 µM; in [3], 44.7 µM; in [4] it was 39.8 µM. In addition, in data set [5], the CC50 at 48 h was greater than 200 µM.

Turning to `NC(=O)c1nc(F)cnc1O` [FAVIPIRAVIR], the half-maximal effective concentration (EC50) in data set [6], in data set [7] and in [8] was 37.4 µM in each case. In data set [9], the cytotoxic concentration (CC50) was greater than 1000 µM.

Regarding `CC(=O)c1cc(O)ccc1O[C@@H]1O[C@H](CO)[C@@H](O)[C@H](OC(=O)c2cc(O)c(O)c(O)c2)[C@H]1OC(=O)c1cc(O)c(O)c(O)c1`, the values for the EC50 in data set [6], in [7] and in [8] were 24.6 µM, 30.7 µM and 30.7 µM, respectively. For the same compound, in [9], the CC50 was greater than 1000 µM.

Turning to `O=C(Cc1cccs1)Nc1cccc(-c2ccc3nnc(-c4cccnc4)n3n2)c1`, the CC50 in data set [10] is greater than 50 µM. Moreover, the concentration giving a half-maximal response (EC50) in data set [11] was 0.43 µM; in data set [12] it was 2.05 µM; in data set [13], 1.77 µM; in data set [14], 1.22 µM; in [15] it was 0.76 µM; in data set [16] it was 0.05 µM.

`CC1CC2=C(NC(=O)NC2c2ccc(O)c(Br)c2)c2ccccc21` (configuration not stated): the EC50 was determined as 0.098 µM in data set [17] and 0.046 µM in [18]. For the same compound, the selectivity ratio in data set [19] is greater than 510; in data set [20] it was greater than 1090.

Turning to `CCc1ccc(NC(=O)COC(=O)c2ccc3ccccc3n2)cc1`, the EC50 in data set [21] came out at 51.6 µM. For the same compound, the CC50 at 48 h in [22] was greater than 400 µM.

In turn, `C=C1Cc2cc(C(F)(F)F)ccc2C(=O)NCC(C)/C(=N/OC)CCCCOC1=O` (configuration not stated) displayed an EC50 in data set [23] of 0.57 µM. The same compound had a cytotoxic concentration (CC50) in [24] greater than 100 µM.

Usually IC50 stands for the concentration that gives 50% inhibition. In turn, `Cc1onc(-c2ccccc2Cl)c1C(=O)N1CCN(c2ccc([N+](=O)[O-])cc2Cl)CC1` returned a 50% inhibitory concentration (IC50) in data set [25] of 0.1 µM. Moreover, the concentration for a half-maximal effect (EC50) in data set [26] came to 1.2 µM; in [27], 1.2 µM; in [28], 0.7 µM; in data set [29], 0.32 µM; in data set [32] it was 4.2 µM; in [33], 1.2 µM. Moreover, the concentration for a half-maximal effect (EC50) in data set [34] came to 0.7 µM; in data set [35] it was 0.32 µM. Besides, the CC50 at 48 h in data set [30] and in data set [31] was greater than 100 µM in each case.

In data set [36], `O[C@H]1[C@H]2c3cc4c(cc3CN3CCC(=C[C@@H]1O)[C@H]23)OCO4` [LYCORINE] showed a 50% cytotoxic concentration (CC50) at 72 h of 20.9 µM. In addition, the EC50 in data set [37] is less than 0.46 µM.

For the compound `Cc1cccc(N2CCN(Cc3n[nH]c(=O)n3Cc3cccc(F)c3)CC2)c1C`, the concentration for a half-maximal effect (EC50) in data set [38] stood at 0.17 µM. Moreover, the CC50 at 72 h in [39] is greater than 100 µM.

As to `CC(=O)c1cc(O)ccc1O[C@@H]1O[C@H](COC(=O)c2cc(O)c(O)c(O)c2)[C@@H](O)[C@H](OC(=O)c2cc(O)c(O)c(O)c2)[C@H]1O`, the EC50 turned out to be 11.6 µM in [6], 20.2 µM in data set [7] and 29.2 µM in data set [8]. Besides, the CC50 in [9] was 964 µM.
